Among the data in patent publication US20090105251A1, “Renin inhibitors” (priority 2007, published 2009) are IC50 values, retold here.

Where only a bound is given, the exact number is not on record here.

The target in this experiment is T1, Recombinant human renin (Homo sapiens, UniProt P00797).
T1 construct: isolate the active form (residues 67-406); made in house
T1 sequence (P00797 67-406): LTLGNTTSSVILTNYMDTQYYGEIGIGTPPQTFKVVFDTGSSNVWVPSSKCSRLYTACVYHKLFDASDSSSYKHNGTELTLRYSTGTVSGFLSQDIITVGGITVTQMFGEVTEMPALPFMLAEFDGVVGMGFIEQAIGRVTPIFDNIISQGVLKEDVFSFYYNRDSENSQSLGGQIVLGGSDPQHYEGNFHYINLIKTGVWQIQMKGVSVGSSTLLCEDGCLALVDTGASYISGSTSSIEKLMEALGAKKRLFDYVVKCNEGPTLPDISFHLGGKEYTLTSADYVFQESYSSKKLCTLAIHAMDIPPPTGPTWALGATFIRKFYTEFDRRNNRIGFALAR
The experiment in a line: In vitro enzymatic activity assay of renin inhibitors (fluorogenic peptide substrate). It counts as biochemical. The conditions noted are these: recombinant human renin 3 nM, 1 μM substrate QXL520/HiLyteFluo488 peptide, pH 7.4, 37° C., fluorescence; values given as ranges; read-out: IC50 of Exemplified Compounds Against Renin, IC50. The text has this:
Test compounds in varying concentrations may be reacted with recombinant human renin in the presence of substrate, e.g., QXL520-γ-Abu-Ile-His-Pro-Phe-His-Leu-Val-Ile-His-Thr-Lys (HiLyteFluo488)-Arg-OH (Anaspec, San Jose, Calif.). The reaction can be followed kinetically using fluorescence (excitation λ=485 nm; emission λ=538 nm). Inhibition constants (IC50) may be calculated by non-linear curve fitting of the compound concentrations and fluorescence intensities to the standard IC50 equation.
Solutions of test compounds in varying concentrations (≦2 mM final concentration) are prepared in dimethyl sulfoxide (DMSO) and then diluted into assay buffer comprising 50 mM Hepes, 1 mM EDTA, 1 mM DTT, 0.1 mg/ml BSA, 0.01% Brij35, pH 7.4. Alternatively, the assay can be performed with a high BSA concentration, wherein the buffer contains an additional 2% BSA.
Recombinant human renin (3 nM final concentration) is added to the dilutions and pre-incubated with the compounds for 10 minutes at 37° C. As described in Examples A-C above, human renin can be obtained by expressing preprorenin (residue 1-406) in mammalian cells, treating the prorenin (residues 24-406) contained in the culture supernatant with trypsin, and isolate the active form (residues 67-406). After pre-incubation, the reaction is initiated with 1 μM of substrate QXL520-γ-Abu-Ile-His-Pro-Phe-His-Leu-Val-Ile-His-Thr-Lys (HiLyteFluo488)-Arg-OH (Anaspec, San Jose, Calif.). The final DMSO in the assay is 5%. The total volume of the reaction mixture is 20 μL, which can be placed on Greiner 384-well small volume plates.
Renin activity may be determined via fluorescence (excitation λ=485 nm; emission λ=538 nm), e.g., on a Molecular Devices SPECTROmax GEMINI XPS. The fluorescence intensity is determined upon the addition of substrate and determined again after incubation at 37° C. for one hour. The fluorescence intensity of a blank (no inhibition) using vehicle alone is also determined. Renin activity is linearly proportional to the change in fluorescence observed (final−initial).
The percent inhibition of renin at a given compound concentration is defined as:
100%×[1−(Fcompound/Fblank)]
where Fcompound is the observed fluorescence at a given concentration of test compound and Fblank is the observed fluorescence in the presence of vehicle alone.
The pIC50 value (negative log of the molar concentration of the compound that produces 50% inhibition) of a test compound is calculated by non-linear least squares curve fitting of the equation:
Percent Inhibition=100%/(1+(10^−pIC50/10^log [I]))
to percent inhibition versus compound concentration. The 50% inhibitory concentration (IC50) of a test compound is calculated by raising 10 to the negative pIC50 (10^−pIC50).
With `O=C(c1ccsc1-c1ccccc1Oc1ccccc1)N1CCNC[C@H]1Cc1ccccc1` [Example 12, ((R)-2-benzylpiperazin-1-yl)(2-(2-phenoxyphenyl)thiophen-3-yl)methanone], the 50% inhibitory concentration (IC50) is below 1000 nM.
Under `O=C(c1cc(-c2ccccc2Oc2ccccc2)cs1)N1CCNC[C@H]1Cc1ccccc1` [Example 43, (R)-(2-benzylpiperazin-1-yl)(4-(2-phenoxyphenyl)thiophen-2-yl)methanone] stands 1000 to 50000 nM; under `O=C(c1ccccc1Cc1ccccc1)N1CCNC[C@H]1Cc1ccccc1` [Example 21, (R)-(2-benzylphenyl)(2-benzylpiperazin-1-yl)methanone], 1000 to 50000 nM.
The value for `O=C(c1nnc(-c2ccccc2-c2ccccc2)o1)N1CCNC[C@H]1Cc1ccccc1` [Example 46, (R)-(2-benzylpiperazin-1-yl)(5-(biphenyl-2-yl)-1,3,4-oxadiazol-2-yl)methanone] was 1000 to 50000 nM; that for `Cc1oc(-c2ccccc2)nc1Cn1nc(C(=O)N2CCNC[C@H]2Cc2ccccc2)c2ccccc21` [Example 37, (R)-(2-benzylpiperazin-1-yl)(1-((5-methyl-2-phenyloxazol-4-yl)methyl)-1H-indazol-3-yl)methanone] was 1000 to 50000 nM.
Under `Cn1cc(-c2ccccc2Oc2ccccc2)c(C(=O)N2CCNC[C@H]2Cc2ccccc2)n1` [Example 17, ((R)-2-benzylpiperazin-1-yl)(1-methyl-4-(2-phenoxyphenyl)-1H-pyrazol-3-yl)methanone] stands below 1000 nM; under `O=C(c1ccccc1-c1ccccc1)N1CCNC[C@H]1Cc1ccccc1` [Example 4, (R)-(2-benzylpiperazin-1-yl)(biphenyl-2-yl)methanone], 1000 to 50000 nM.
In the case of `N#Cc1ccccc1Oc1ccccc1-c1ccsc1C(=O)N1CCNC[C@H]1Cc1ccccc1` [Example 10, 2-(2-(2-((R)-2-benzylpiperazine-1-carbonyl)thiophen-3-yl)phenoxy)benzonitrile], the half-inhibitory concentration (IC50) was 1000 to 50000 nM.
`CCn1nc(C)c(-c2ccccc2Oc2ccccc2)c1C(=O)N1CCNC[C@H]1Cc1ccccc1` [Example 14, ((R)-2-benzylpiperazin-1-yl)(1-ethyl-3-methyl-4-(2-phenoxyphenyl)-1H-pyrazol-5-yl)methanone]: the 50% inhibitory concentration (IC50) was in the range of 1000 to 50000 nM.
As for `O=C(c1ccccc1-c1ccccc1Cl)N1CCNC[C@H]1Cc1ccccc1` [Example 5, ((R)-2-benzylpiperazin-1-yl)(2′-chlorobiphenyl-2-yl)methanone], the half-maximal inhibitory concentration (IC50) is 1000 to 50000 nM.
Under `N#Cc1ccccc1Sc1ccccc1C(=O)N1CCNC[C@H]1Cc1ccccc1` [Example 20, (R)-2-(2-(2-benzylpiperazine-1-carbonyl)phenylthio)benzonitrile] stands 1000 to 50000 nM.
The value for `O=C(c1ccsc1-c1ccccc1CN1CCOCC1)N1CCNC[C@H]1Cc1ccccc1` [Example 41, ((R)-2-benzylpiperazin-1-yl)(2-(2-(morpholinomethyl)phenyl)-thiophen-3-yl)methanone] was 1000 to 50000 nM.
Under `O=C(c1sccc1-c1cnn(Cc2ccccc2)c1)N1CCNC[C@H]1Cc1ccccc1` [Example 18, (R)-(3-(1-benzyl-1H-pyrazol-4-yl)thiophen-2-yl)(2-benzylpiperazin-1-yl)methanone] stands 1000 to 50000 nM; under `O=C(C1CC1c1ccccc1)N1CCNCC1Cc1ccccc1` (stereo in doubt) [Example 2, ((S)-2-benzylpiperazin-1-yl)(2-phenylcyclopropyl)methanone], above 100000 nM.
For `O=C(c1ccc(-c2ccccc2Oc2ccccc2)s1)N1CCNC[C@H]1Cc1ccccc1` [Example 44, (R)-(2-benzylpiperazin-1-yl)(5-(2-phenoxyphenyl)thiophen-2-yl)methanone], the half-inhibitory concentration (IC50) was in the range of 1000 to 50000 nM.
